pIC50: −log10 of the molar value. Values after ≈ are worked out from the molar mass of the structure shown. Where two headings read alike, the source gives them in different places.
Assays:
C. albicans (Calb) = experiment: MIC broth microdilution assay (NCCLS M27-A); format: cell-based; settings: Candida albicans, read-out: Minimal Inhibitory Concentrations
Candida sp. (Cflu) = experiment: MIC broth microdilution assay (NCCLS M27-A); format: cell-based; settings: read-out: Minimal Inhibitory Concentrations
C. glabrata (Cgla) = experiment: MIC broth microdilution assay (NCCLS M27-A); format: cell-based; settings: Nakaseomyces glabratus, read-out: Minimal Inhibitory Concentrations
C. albicans (Ctro) = experiment: MIC broth microdilution assay (NCCLS M27-A); format: cell-based; settings: Candida albicans, read-out: Minimal Inhibitory Concentrations
A549/ATCC = experiment: In vitro cytotoxic efficacy (MTT); format: cell-based; settings: Homo sapiens
NCI-H460 = experiment: In vitro cytotoxic efficacy (MTT); format: cell-based; settings: Homo sapiens
HT29 = experiment: In vitro cytotoxic efficacy (MTT); format: cell-based; settings: Homo sapiens
SNB-19 = experiment: In vitro cytotoxic efficacy (MTT); format: cell-based; settings: Homo sapiens
SK-OV3 = experiment: In vitro cytotoxic efficacy (MTT); format: cell-based; settings: Homo sapiens
MCF7 = experiment: In vitro cytotoxic efficacy (MTT); format: cell-based; settings: Homo sapiens
CCRF-CEM = experiment: In vitro cytotoxic efficacy (MTT); format: cell-based; settings: Homo sapiens, Leukemia, 96 h
HL-60 (TB) = experiment: In vitro cytotoxic efficacy (MTT); format: cell-based; settings: Homo sapiens, Leukemia, 96 h
K562 = experiment: In vitro cytotoxic efficacy (MTT); format: cell-based; settings: Homo sapiens, Leukemia, 96 h
MOLT-4 = experiment: In vitro cytotoxic efficacy (MTT); format: cell-based; settings: Homo sapiens, Leukemia, 96 h
RPMI-8226 = experiment: In vitro cytotoxic efficacy (MTT); format: cell-based; settings: Homo sapiens, Leukemia, 96 h
SR = experiment: In vitro cytotoxic efficacy (MTT); format: cell-based; settings: Homo sapiens, Leukemia, 96 h
EKVX = experiment: In vitro cytotoxic efficacy (MTT); format: cell-based; settings: Homo sapiens, Non-small cell lung, 96 h
HOP-92 = experiment: In vitro cytotoxic efficacy (MTT); format: cell-based; settings: Homo sapiens, Non-small cell lung, 96 h
NCI-H522 = experiment: In vitro cytotoxic efficacy (MTT); format: cell-based; settings: Homo sapiens, Non-small cell lung, 96 h
COLO 205 = experiment: In vitro cytotoxic efficacy (MTT); format: cell-based; settings: Homo sapiens, Colon, 96 h
HCC-2998 = experiment: In vitro cytotoxic efficacy (MTT); format: cell-based; settings: Homo sapiens, Colon, 96 h
HCT-15 = experiment: In vitro cytotoxic efficacy (MTT); format: cell-based; settings: Homo sapiens, Colon, 96 h
KM12 = experiment: In vitro cytotoxic efficacy (MTT); format: cell-based; settings: Homo sapiens, Colon, 96 h
SW-620 = experiment: In vitro cytotoxic efficacy (MTT); format: cell-based; settings: Homo sapiens, Colon, 96 h
SF-268 = experiment: In vitro cytotoxic efficacy (MTT); format: cell-based; settings: Homo sapiens, CNS, 96 h
SF-295 = experiment: In vitro cytotoxic efficacy (MTT); format: cell-based; settings: Homo sapiens, CNS, 96 h
SF-539 = experiment: In vitro cytotoxic efficacy (MTT); format: cell-based; settings: Homo sapiens, CNS, 96 h
SNB-75 = experiment: In vitro cytotoxic efficacy (MTT); format: cell-based; settings: Homo sapiens, CNS, 96 h
U-251 = experiment: In vitro cytotoxic efficacy (MTT); format: cell-based; settings: Homo sapiens, CNS, 96 h
LOX IMVI = experiment: In vitro cytotoxic efficacy (MTT); format: cell-based; settings: Homo sapiens, Melanoma, 96 h
M14 = experiment: In vitro cytotoxic efficacy (MTT); format: cell-based; settings: Homo sapiens, Melanoma, 96 h
SK-MEL-2 = experiment: In vitro cytotoxic efficacy (MTT); format: cell-based; settings: Homo sapiens, Melanoma, 96 h
SK-MEL-28 = experiment: In vitro cytotoxic efficacy (MTT); format: cell-based; settings: Homo sapiens, Melanoma, 96 h
SK-MEL-5 = experiment: In vitro cytotoxic efficacy (MTT); format: cell-based; settings: Homo sapiens, Melanoma, 96 h
UACC-257 = experiment: In vitro cytotoxic efficacy (MTT); format: cell-based; settings: Homo sapiens, Melanoma, 96 h
UACC = experiment: In vitro cytotoxic efficacy (MTT); format: cell-based; settings: 96 h
IGROV1 = experiment: In vitro cytotoxic efficacy (MTT); format: cell-based; settings: Homo sapiens, IGROV-1, Ovarian, 96 h
OVCAR-4 = experiment: In vitro cytotoxic efficacy (MTT); format: cell-based; settings: Homo sapiens, Ovarian, 96 h
OVCAR-5 = experiment: In vitro cytotoxic efficacy (MTT); format: cell-based; settings: Homo sapiens, Ovarian, 96 h
OVCAR-8 = experiment: In vitro cytotoxic efficacy (MTT); format: cell-based; settings: Homo sapiens, Ovarian, 96 h
786-0 = experiment: In vitro cytotoxic efficacy (MTT); format: cell-based; settings: Homo sapiens, Renal, 96 h
CAKI-1 = experiment: In vitro cytotoxic efficacy (MTT); format: cell-based; settings: Homo sapiens, Renal, 96 h
RXF 393 = experiment: In vitro cytotoxic efficacy (MTT); format: cell-based; settings: Homo sapiens, Renal, 96 h
SN12C = experiment: In vitro cytotoxic efficacy (MTT); format: cell-based; settings: Homo sapiens, Renal, 96 h
TK-10 = experiment: In vitro cytotoxic efficacy (MTT); format: cell-based; settings: Homo sapiens, Renal, 96 h
UO-31 = experiment: In vitro cytotoxic efficacy (MTT); format: cell-based; settings: Homo sapiens, Renal, 96 h
NCI/ADR-RES = experiment: In vitro cytotoxic efficacy (MTT); format: cell-based; settings: Homo sapiens, Breast, 96 h
MDA-MB-435 = experiment: In vitro cytotoxic efficacy (MTT); format: cell-based; settings: Homo sapiens, Breast, 96 h
BT-549 = experiment: In vitro cytotoxic efficacy (MTT); format: cell-based; settings: Homo sapiens, Breast, 96 h
T-47D = experiment: In vitro cytotoxic efficacy (MTT); format: cell-based; settings: Homo sapiens, T47D, Breast, 96 h
A498 = experiment: In vitro cytotoxic efficacy (MTT); settings: Homo sapiens, A498, 96 h
PC-3 = experiment: In vitro cytotoxic efficacy (MTT); settings: Homo sapiens, PC-3, 96 h
MDA-MB-231/ATCC = experiment: In vitro cytotoxic efficacy (MTT); settings: Homo sapiens, MDA-MB-231, 96 h
HCT-116 = experiment: In vitro cytotoxic efficacy (MTT); settings: Homo sapiens, HCT-116, 96 h
S. cerevisiae (Scer) = experiment: MIC broth microdilution assay (NCCLS M27-A); settings: Saccharomyces cerevisiae, read-out: Minimal Inhibitory Concentrations
LB1319-MEL = experiment: In vitro cytotoxic efficacy (MTT); format: cell-based; settings: Melanoma, 96 h
OVCAR-3 = experiment: In vitro cytotoxic efficacy (MTT); format: cell-based; settings: Homo sapiens, Ovarian, 96 h
DU-145 = experiment: In vitro cytotoxic efficacy (MTT); format: cell-based; settings: Homo sapiens, Prostate, 96 h
PANC-1 = experiment: In vitro cytotoxic efficacy (MTT); format: cell-based; settings: Homo sapiens, Pancreatic, 96 h

**Q.** Which MIC (C. albicans (Calb); 48 hrs) does the source give for C\C(=C/C=C/C=C/CC/C=C/C(C)C(O)C(C)C(O)/C=C/C=C/C=C/C=C/C=C/C=C/CC(O)C(C)C(=O)CC(O)CC(O)/C=C/CC(O)CC(O)CC(O)/C=C/CC(O)CC(O)/C=C/CC(O)CC(O)CCCNC(=N)N)C(=O)O (stereo not shown) [Compound 2] here?
**A.** 4 µg/mL (≈ 3.51 µM)

**Q.** What about the MIC (Candida sp. (Cflu); 48 hrs) of the same compound?
**A.** 8 µg/mL (≈ 7.03 µM)

**Q.** And the MIC (C. glabrata (Cgla); 48 hrs)?
**A.** 4 µg/mL (≈ 3.51 µM)

**Q.** And the MIC (C. albicans (Ctro); 48 h)?
**A.** 4 µg/mL (≈ 3.51 µM)

**Q.** And the pIC50 (A549/ATCC; A549, 96 h)?
**A.** 5.15

**Q.** What about the pIC50 (NCI-H460; NCI-H460, 96 h) of the same compound?
**A.** 5.70

**Q.** And the pIC50 (HT29; HT-29, 96 h)?
**A.** 5.40

**Q.** What about the pIC50 (SNB-19; SNB-19, 96 h) of the same compound?
**A.** < 4.60

**Q.** And the pIC50 (SK-OV3; SK-OV-3, 96 h)?
**A.** < 4.60

**Q.** And the pIC50 (MCF7; MCF7, 96 h)?
**A.** 6.52

**Q.** And the pIC50 (CCRF-CEM)?
**A.** < 4.60

**Q.** And the pIC50 (HL-60 (TB))?
**A.** 4.77

**Q.** What about the pIC50 (K562) of the same compound?
**A.** 5.10

**Q.** And the pIC50 (MOLT-4)?
**A.** < 4.60

**Q.** And the pIC50 (RPMI-8226)?
**A.** 5.22

**Q.** And the pIC50 (SR)?
**A.** 6.00

**Q.** What about the pIC50 (EKVX) of the same compound?
**A.** 5.10

**Q.** What about the pIC50 (HOP-92) of the same compound?
**A.** < 4.60

**Q.** And the pIC50 (NCI-H522)?
**A.** 5.70

**Q.** And the pIC50 (COLO 205)?
**A.** 5.15

**Q.** What about the pIC50 (HCC-2998) of the same compound?
**A.** 7.00

**Q.** And the pIC50 (HCT-15)?
**A.** 5.10

**Q.** What about the pIC50 (KM12) of the same compound?
**A.** 6.10

**Q.** And the pIC50 (SW-620)?
**A.** 6.00

**Q.** What about the pIC50 (SF-268) of the same compound?
**A.** 5.40

**Q.** And the pIC50 (SF-295)?
**A.** 5.40

**Q.** What about the pIC50 (SF-539) of the same compound?
**A.** 5.52

**Q.** And the pIC50 (SNB-75)?
**A.** 5.00

**Q.** And the pIC50 (U-251)?
**A.** 5.22

**Q.** What about the pIC50 (LOX IMVI) of the same compound?
**A.** 5.22

**Q.** What about the pIC50 (M14) of the same compound?
**A.** 6.30

**Q.** What about the pIC50 (SK-MEL-2) of the same compound?
**A.** 5.52

**Q.** What about the pIC50 (SK-MEL-28) of the same compound?
**A.** 4.89

**Q.** And the pIC50 (SK-MEL-5)?
**A.** 5.70

**Q.** What about the pIC50 (UACC-257) of the same compound?
**A.** 5.30

**Q.** What about the pIC50 (UACC) of the same compound?
**A.** 5.10

**Q.** What about the pIC50 (IGROV1) of the same compound?
**A.** 6.22

**Q.** And the pIC50 (OVCAR-4)?
**A.** < 4.60

**Q.** And the pIC50 (OVCAR-5)?
**A.** 5.22

**Q.** And the pIC50 (OVCAR-8)?
**A.** 5.30

**Q.** And the pIC50 (786-0)?
**A.** 5.10

**Q.** What about the pIC50 (CAKI-1) of the same compound?
**A.** 5.70

**Q.** And the pIC50 (RXF 393)?
**A.** 6.40

**Q.** And the pIC50 (SN12C)?
**A.** 5.15

**Q.** And the pIC50 (TK-10)?
**A.** 5.15

**Q.** And the pIC50 (UO-31)?
**A.** 5.10

**Q.** And the pIC50 (NCI/ADR-RES)?
**A.** 4.62

**Q.** What about the pIC50 (MDA-MB-435) of the same compound?
**A.** 6.05

**Q.** What about the pIC50 (BT-549) of the same compound?
**A.** 6.05

**Q.** What about the pIC50 (T-47D) of the same compound?
**A.** < 4.60

**Q.** What about the pIC50 (A498) of the same compound?
**A.** 5.22

**Q.** What about the pIC50 (PC-3) of the same compound?
**A.** 5.40

**Q.** And the pIC50 (MDA-MB-231/ATCC)?
**A.** 5.05

**Q.** And the pIC50 (HCT-116)?
**A.** 5.70

**Q.** What about the MIC (S. cerevisiae (Scer); 48 h) of the same compound?
**A.** 4 µg/mL (≈ 3.51 µM)

**Q.** What does the source list for C\C(=C/C=C/C=C/CC/C=C/C(C)C(O)C(C)C(O)/C=C/C=C/C=C/C=C/C=C/C=C/CC(OS(=O)(=O)O)C(C)C(=O)CC(O)CC(O)/C=C/CC(O)CC(O)CC(O)/C=C/CC(O)CC(O)/C=C/CC(O)CC(O)CCCNC(=N)N)C(=O)O (stereo not shown) [Compound 1]?
**A.** MIC (C. albicans (Calb); 24 hrs): 4 µg/mL (≈ 3.28 µM); MIC (Candida sp. (Cflu); 24 hrs): 8 µg/mL (≈ 6.57 µM); MIC (C. glabrata (Cgla); 24 hrs): 4 µg/mL (≈ 3.28 µM); MIC (C. albicans (Ctro); C. albicans (Ctro), 24 hrs): 4 µg/mL (≈ 3.28 µM); pIC50 (A549/ATCC; Non-small cell lung, A549/ATCC, 96 h, MTT, read-out: IC50): 4.92; pIC50 (NCI-H460; Non-small cell lung, NCI-H460, 96 h, MTT, read-out: IC50): 4.89; pIC50 (HT29; HT-29, Colon, HT29, 96 h, MTT, read-out: IC50): 4.64; pIC50 (SNB-19; CNS, SNB-19, 96 h, MTT, read-out: IC50): 5.00; pIC50 (LB1319-MEL): 4.96; pIC50 (OVCAR-3): 4.92; pIC50 (SK-OV3; SK-OV-3, Ovarian, SK-OV3, 96 h, MTT, read-out: IC50): 4.82; pIC50 (DU-145): 5.10; pIC50 (MCF7; Breast, MCF7, 96 h, MTT, read-out: IC50): 4.74; pIC50 (PANC-1): 4.82; pIC50 (A498): 4.89; pIC50 (PC-3): 5.00; pIC50 (MDA-MB-231/ATCC): 4.92; MIC (S. cerevisiae (Scer); 24 h): 4 µg/mL (≈ 3.28 µM)
